In PMC11277489, “Novel Piperazine Derivatives of Vindoline as Anticancer Agents” (International Journal of Molecular Sciences, 2024):
Like-named read-outs stand apart in the source and are kept apart here.

Assays:
Assay type in all cases: cell-based
[1] = system: CCRF-CEM; assay: NCI60 five-dose screen, Leukemia; settings: Homo sapiens
[2] = system: MOLT-4; assay: NCI60 five-dose screen, Leukemia; settings: Homo sapiens
[3] = system: RPMI-8226; assay: NCI60 five-dose screen, Leukemia; settings: Homo sapiens
[4] = system: SR; assay: NCI60 five-dose screen, Leukemia; settings: Homo sapiens
[5] = system: A549/ATCC; assay: NCI60 five-dose screen, Non-small Cell Lung Cancer; settings: Homo sapiens
[6] = system: NCI-H226; assay: NCI60 five-dose screen, Non-small Cell Lung Cancer; settings: Homo sapiens
[7] = system: NCI-H23; assay: NCI60 five-dose screen, Non-small Cell Lung Cancer; settings: Homo sapiens
[8] = system: NCI-H322M; assay: NCI60 five-dose screen, Non-small Cell Lung Cancer; settings: Homo sapiens
[9] = system: NCI-H522; assay: NCI60 five-dose screen, Non-small Cell Lung Cancer; settings: Homo sapiens
[10] = system: COLO 205; assay: NCI60 five-dose screen, Colon Cancer; settings: Homo sapiens
[11] = system: HCC-2998; assay: NCI60 five-dose screen, Colon Cancer; settings: Homo sapiens
[12] = system: HCT-15; assay: NCI60 five-dose screen, Colon Cancer; settings: Homo sapiens
[13] = system: KM12; assay: NCI60 five-dose screen, Colon Cancer; settings: Homo sapiens
[14] = system: SW-620; assay: NCI60 five-dose screen, Colon Cancer; settings: Homo sapiens
[15] = system: SF-295; assay: NCI60 five-dose screen, CNS Cancer; settings: Homo sapiens
[16] = system: SNB-75; assay: NCI60 five-dose screen, CNS Cancer; settings: Homo sapiens
[17] = system: U251; assay: NCI60 five-dose screen, CNS Cancer; settings: Homo sapiens, U-251
[18] = system: MALME-3M; assay: NCI60 five-dose screen, Melanoma; settings: Homo sapiens
[19] = system: M14; assay: NCI60 five-dose screen, Melanoma; settings: Homo sapiens
[20] = system: SK-MEL-2; assay: NCI60 five-dose screen, Melanoma; settings: Homo sapiens
[21] = system: SK-MEL-28; assay: NCI60 five-dose screen, Melanoma; settings: Homo sapiens
[22] = system: UACC-257; assay: NCI60 five-dose screen, Melanoma; settings: Homo sapiens
[23] = system: OVCAR-3; assay: NCI60 five-dose screen, Ovarian Cancer; settings: Homo sapiens
[24] = system: OVCAR-8; assay: NCI60 five-dose screen, Ovarian Cancer; settings: Homo sapiens
[25] = system: SK-OV-3; assay: NCI60 five-dose screen, Ovarian Cancer; settings: Homo sapiens
[26] = system: 786–0; assay: NCI60 five-dose screen, Renal Cancer; settings: Homo sapiens
[27] = system: A498; assay: NCI60 five-dose screen, Renal Cancer; settings: Homo sapiens
[28] = system: SN12C; assay: NCI60 five-dose screen, Renal Cancer; settings: Homo sapiens
[29] = system: UO-31; assay: NCI60 five-dose screen, Renal Cancer; settings: Homo sapiens
[30] = system: PC-3; assay: NCI60 five-dose screen, Prostate Cancer; settings: Homo sapiens
[31] = system: MCF7; assay: NCI60 five-dose screen, Breast Cancer; settings: Homo sapiens
[32] = system: BT-549; assay: NCI60 five-dose screen, Breast Cancer; settings: Homo sapiens
[33] = system: MDA-MB-468; assay: NCI60 five-dose screen, Breast Cancer; settings: Homo sapiens
[34] = system: 60 human tumor cell lines (NCI60); assay: NCI60 five-dose screen, whole panel and sub-panel means
[35] = Leukemia, five-dose screen, read-out: GI50

`CC[C@]12C=CCN3CC[C@@]4(c5ccc(OC)cc5N(C)[C@H]4[C@@](O)(C(=O)OC)[C@@H]1OC(=O)CCCN1CCN(C(c4ccc(F)cc4)c4ccc(F)cc4)CC1)[C@@H]32` [Compound 25] gave a GI50 [1] of 2.04 µM, a GI50 ([2]; MOLT-4) of 1.45 µM and a GI50 ([3]; RPMI-8226) of 1.95 µM. It also gave a GI50 [4] of 1.7 µM, a GI50 ([5]; A549) of 2.63 µM and a GI50 ([6]; NCI-H226) of 2.04 µM. It also gave a GI50 ([7]; NCI-H23) of 1.91 µM, a GI50 [8] of 1.95 µM and a GI50 ([9]; NCI-H522) of 1.7 µM. For the same compound, the GI50 ([10]; COLO 205) was 1.66 µM, the GI50 ([11]; HCC 2998) was 1.66 µM and the GI50 ([12]; HCT-15) was 1.7 µM. It also gave a GI50 ([13]; KM12) of 1.78 µM, a GI50 ([14]; SW-620) of 1.62 µM and a GI50 ([15]; SF-295) of 1.7 µM. It also gave a GI50 ([16]; SNB-75) of 5.01 µM, a GI50 [17] of 1.55 µM and a GI50 ([18]; Malme-3M) of 1.51 µM. It also gave a GI50 ([19]; M14) of 1.91 µM, a GI50 ([20]; SK-MEL-2) of 2.4 µM and a GI50 ([21]; SK-MEL-28) of 1.74 µM. It also gave a GI50 ([22]; UACC-257) of 1.74 µM, a GI50 ([23]; OVCAR-3) of 1.74 µM and a GI50 ([24]; OVCAR-8) of 2.09 µM. It also gave a GI50 ([25]; SK-OV-3) of 1.55 µM, a GI50 ([26]; 786-0) of 1.58 µM and a GI50 ([27]; A498) of 5.25 µM. The GI50 [28] was 1.66 µM, the GI50 ([29]; UO-31) was 1.66 µM and the GI50 ([30]; PC-3) was 1.51 µM. The GI50 ([31]; MCF7) was 1.7 µM, the GI50 ([32]; BT-549) was 1.78 µM and the GI50 ([33]; MDA-MB-468) was 1.51 µM. The GI50 ([34]; Homo sapiens, 60 cell, read-out: GI50 Mean, mean over all 60 cell lines) was 1.85 µM, the GI50 ([34]; Homo sapiens, on almost all cell lines, five-dose screen) was < 2 µM and the GI50 ([34]; Homo sapiens, read-out: GI50 Mean, mean over Breast Cancer panel) was 1.67 µM. It also gave a GI50 ([34]; Homo sapiens, read-out: GI50 Mean, mean over CNS Cancer panel) of 2.21 µM, a GI50 ([34]; Homo sapiens, read-out: GI50 Mean, mean over Colon Cancer panel) of 1.73 µM and a GI50 ([34]; Homo sapiens, read-out: GI50 Mean, mean over Leukemia panel) of 1.76 µM. For the same compound, the GI50 ([34]; Homo sapiens, read-out: GI50 Mean, mean over Melanoma panel) was 1.78 µM, the GI50 ([34]; Homo sapiens, read-out: GI50 Mean, mean over Non-small Cell Lung Cancer panel) was 1.85 µM and the GI50 ([34]; Homo sapiens, read-out: GI50 Mean, mean over Ovarian Cancer panel) was 1.73 µM. For the same compound, the GI50 ([34]; Homo sapiens, read-out: GI50 Mean, mean over Prostate Cancer panel) was 1.65 µM and the GI50 ([34]; Homo sapiens, read-out: GI50 Mean, mean over Renal Cancer panel) was 2.18 µM.

Compound `CC[C@]12C=CCN3CC[C@@]4(c5ccc(OC)cc5N(C)[C@H]4[C@@](O)(C(=O)OC)[C@@H]1OC(=O)CCC(=O)N1CCN(C(c4ccc(F)cc4)c4ccc(F)cc4)CC1)[C@@H]32` [Compound 31] has a GI50 [1, 35] of 2.11 µM, a GI50 ([2]; MOLT-4, Leukemia, five-dose screen, read-out: GI50) of 1.35 µM and a GI50 ([3]; RPMI-8226, Leukemia, five-dose screen, read-out: GI50) of 1.42 µM. It also gave a GI50 [4, 35] of 1.63 µM, a GI50 ([5]; A549/ATCC, Non-small Cell Lung Cancer, five-dose screen, read-out: GI50) of 2.67 µM and a GI50 ([6]; NCI-H226, Non-small Cell Lung Cancer, five-dose screen, read-out: GI50) of 1.84 µM. It also gave a GI50 ([7]; NCI-H23, Non-small Cell Lung Cancer, five-dose screen, read-out: GI50) of 2.7 µM, a GI50 ([8]; Non-small Cell Lung Cancer, five-dose screen, read-out: GI50) of 4.99 µM and a GI50 ([9]; NCI-H522, Non-small Cell Lung Cancer, five-dose screen, read-out: GI50) of 2.04 µM. It also gave a GI50 ([10]; COLO 205, Colon Cancer, five-dose screen, read-out: GI50) of 2.82 µM, a GI50 ([11]; HCC-2998, Colon Cancer, five-dose screen, read-out: GI50) of 1.24 µM and a GI50 ([12]; HCT-15, Colon Cancer, five-dose screen, read-out: GI50) of 2.45 µM. The GI50 ([13]; KM12, Colon Cancer, five-dose screen, read-out: GI50) was 2.36 µM, the GI50 ([14]; SW-620, Colon Cancer, five-dose screen, read-out: GI50) was 2.27 µM and the GI50 ([15]; SF-295, CNS Cancer, five-dose screen, read-out: GI50) was 2.11 µM. It also gave a GI50 ([16]; SNB-75, CNS Cancer, five-dose screen, read-out: GI50) of 2.11 µM, a GI50 ([17]; U251, CNS Cancer, five-dose screen, read-out: GI50) of 2.78 µM and a GI50 ([18]; MALME-3M, Melanoma, five-dose screen, read-out: GI50) of 2.2 µM. The GI50 ([19]; M14, Melanoma, five-dose screen, read-out: GI50) was 3.55 µM, the GI50 ([20]; SK-MEL-2, Melanoma, five-dose screen, read-out: GI50) was 1.62 µM and the GI50 ([21]; SK-MEL-28, Melanoma, five-dose screen, read-out: GI50) was 3.26 µM. The GI50 ([22]; UACC-257, Melanoma, five-dose screen, read-out: GI50) was 2.7 µM, the GI50 ([23]; OVCAR-3, Ovarian Cancer, five-dose screen, read-out: GI50) was 1.6 µM and the GI50 ([24]; OVCAR-8, Ovarian Cancer, five-dose screen, read-out: GI50) was 3.18 µM. It also gave a GI50 ([25]; SK-OV-3, Ovarian Cancer, five-dose screen, read-out: GI50) of 2.02 µM, a GI50 ([26]; 786–0, Renal Cancer, five-dose screen, read-out: GI50) of 2.47 µM and a GI50 ([27]; A498, Renal Cancer, five-dose screen, read-out: GI50) of 2.38 µM. It also gave a GI50 ([28]; Renal Cancer, five-dose screen, read-out: GI50) of 1.47 µM, a GI50 ([29]; UO-31, Renal Cancer, five-dose screen, read-out: GI50) of 2.32 µM and a GI50 ([30]; PC-3, Prostate Cancer, five-dose screen, read-out: GI50) of 1.86 µM. For the same compound, the GI50 ([31]; MCF7, Breast Cancer, five-dose screen, read-out: GI50) was 1.74 µM, the GI50 ([32]; BT-549, Breast Cancer, five-dose screen, read-out: GI50) was 1.81 µM and the GI50 ([33]; MDA-MB-468, Breast Cancer, five-dose screen, read-out: GI50) was 1.2 µM. For the same compound, the GI50 ([34]; Homo sapiens, 60 cell, mean over all 60 cell lines, read-out: GI50 Mean) was < 4 µM, the GI50 ([34]; Homo sapiens, mean over Breast Cancer panel, read-out: GI50 Mean) was 2 µM and the GI50 ([34]; Homo sapiens, mean over CNS Cancer panel, read-out: GI50 Mean) was 2.6 µM. For the same compound, the GI50 ([34]; Homo sapiens, mean over Colon Cancer panel, read-out: GI50 Mean) was 2.23 µM, the GI50 ([34]; Homo sapiens, mean over Leukemia panel, read-out: GI50 Mean) was 1.89 µM and the GI50 ([34]; Homo sapiens, mean over Melanoma panel, read-out: GI50 Mean) was 2.4 µM. It also gave a GI50 ([34]; Homo sapiens, mean over Non-small Cell Lung Cancer panel, read-out: GI50 Mean) of 2.59 µM, a GI50 ([34]; Homo sapiens, mean over Ovarian Cancer panel, read-out: GI50 Mean) of 2.15 µM and a GI50 ([34]; Homo sapiens, mean over Prostate Cancer panel, read-out: GI50 Mean) of 2.27 µM. It also gave a GI50 ([34]; Homo sapiens, mean over Renal Cancer panel, read-out: GI50 Mean) of 2.33 µM and a GI50 ([34]; mean over all 60 cell lines, read-out: GI50 Mean) of 2.29 µM.
